Results taken from ChEMBL document CHEMBL3853358, “Concise SAR Exploration Based on the "Head-to-Tail" Approach: Discovery of PI4KIIIα Inhibitors Bearing Diverse Scaffolds” (ACS Med Chem Lett, 2016).
pEC50, pIC50: −log10 of the molar value.

What was measured:
[1] = Inhibition of human Flag-tagged PI4K3beta expressed in insect cells preincubated with enzyme followed by PS:PI substrate and ATP addition measured after 60 mins by ADP-Glo kinase assay
Homo sapiens = organism: Homo sapiens; assay: Selectivity ratio of IC50 for human Flag-tagged PI4K3beta expressed in insect cells to IC50 for human Flag-tagged PI4K3alpha expressed in insect cells
Hepatitis C virus [2] = assay: Antiviral activity against HCV genotype 1b Con1 infected in human Huh5-2 cells co-expressing subgenomic HCV replicon NS3 assessed as reduction in viral replication after 2 days by luciferase reporter gene assay; assay type: functional, cell-based, Hepacivirus hominis; conditions: genotype 1b Con1, Huh-5-2, 48 h
[3] = Inhibition of human Flag-tagged PI4K3alpha expressed in insect cells preincubated with enzyme followed by PS:PI substrate and ATP addition measured after 60 mins by ADP-Glo kinase assay
[4] = Inhibition of human Flag-tagged PI4K3beta expressed in insect cells preincubated with enzyme followed by PS:PI substrate and ATP addition measured after 60 mins by HTRF Transcreener ADP assay
[5] = Inhibition of human Flag-tagged PI4K3alpha expressed in insect cells preincubated with enzyme followed by PS:PI substrate and ATP addition measured after 60 mins by HTRF Transcreener ADP assay
[6] = Metabolic stability in rat liver microsomes assessed as compound remaining at 5 uM measured up to 60 mins; assay type: ADME; conditions: read-out: Stability
[7] = MRT in CD(Sprague-Dawley) rat at 1 mg/kg, po administered as single dose; assay type: ADME, organism-based; conditions: in vivo
[8] = Oral bioavailability in CD(Sprague-Dawley) rat at 1 mg/kg administered as single dose measured up to 25 hrs; assay type: ADME, organism-based; conditions: in vivo
[9] = target: Phosphatidylinositol 4,5-bisphosphate 3-kinase catalytic subunit beta isoform (Homo sapiens, UniProt P42338); assay: Inhibition of PI3Kbeta (unknown origin) preincubated prior addition of PIP2 as substrate and ATP measured after 30 mins by HTRF assay
Chain of Phosphatidylinositol 4,5-bisphosphate 3-kinase catalytic subunit beta isoform (P42338 whole entry, canonical isoform): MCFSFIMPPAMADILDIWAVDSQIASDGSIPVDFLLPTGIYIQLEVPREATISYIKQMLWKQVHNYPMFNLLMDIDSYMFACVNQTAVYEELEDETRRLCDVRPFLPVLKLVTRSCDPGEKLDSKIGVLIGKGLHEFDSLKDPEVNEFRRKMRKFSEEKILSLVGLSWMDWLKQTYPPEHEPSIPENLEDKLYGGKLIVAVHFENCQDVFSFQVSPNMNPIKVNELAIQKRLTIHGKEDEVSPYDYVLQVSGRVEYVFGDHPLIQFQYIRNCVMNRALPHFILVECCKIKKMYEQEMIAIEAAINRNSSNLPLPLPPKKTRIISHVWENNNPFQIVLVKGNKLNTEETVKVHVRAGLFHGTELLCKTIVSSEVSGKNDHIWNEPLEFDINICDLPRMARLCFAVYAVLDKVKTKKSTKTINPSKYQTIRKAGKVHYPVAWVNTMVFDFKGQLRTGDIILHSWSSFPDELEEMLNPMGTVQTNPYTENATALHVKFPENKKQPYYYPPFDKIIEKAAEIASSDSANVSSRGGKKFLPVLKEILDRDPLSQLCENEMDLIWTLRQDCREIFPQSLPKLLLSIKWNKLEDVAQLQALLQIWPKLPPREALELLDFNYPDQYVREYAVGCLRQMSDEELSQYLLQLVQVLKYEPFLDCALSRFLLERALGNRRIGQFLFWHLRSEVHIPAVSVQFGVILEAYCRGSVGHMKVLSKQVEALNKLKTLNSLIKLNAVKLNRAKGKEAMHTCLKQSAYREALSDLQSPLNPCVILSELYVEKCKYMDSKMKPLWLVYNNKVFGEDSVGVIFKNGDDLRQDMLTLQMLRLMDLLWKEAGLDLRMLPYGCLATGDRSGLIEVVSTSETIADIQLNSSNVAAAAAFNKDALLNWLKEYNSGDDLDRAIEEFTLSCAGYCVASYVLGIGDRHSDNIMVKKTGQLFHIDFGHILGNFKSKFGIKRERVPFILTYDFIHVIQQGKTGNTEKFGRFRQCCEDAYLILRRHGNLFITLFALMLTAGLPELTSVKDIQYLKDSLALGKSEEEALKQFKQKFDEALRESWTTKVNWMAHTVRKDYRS

[10] = target: Phosphatidylinositol 4,5-bisphosphate 3-kinase catalytic subunit alpha isoform (Homo sapiens, UniProt P42336); assay: Inhibition of PI3Kalpha (unknown origin) preincubated prior addition of PIP2 as substrate and ATP measured after 30 mins by HTRF assay
Chain of Phosphatidylinositol 4,5-bisphosphate 3-kinase catalytic subunit alpha isoform (P42336 whole entry, canonical isoform): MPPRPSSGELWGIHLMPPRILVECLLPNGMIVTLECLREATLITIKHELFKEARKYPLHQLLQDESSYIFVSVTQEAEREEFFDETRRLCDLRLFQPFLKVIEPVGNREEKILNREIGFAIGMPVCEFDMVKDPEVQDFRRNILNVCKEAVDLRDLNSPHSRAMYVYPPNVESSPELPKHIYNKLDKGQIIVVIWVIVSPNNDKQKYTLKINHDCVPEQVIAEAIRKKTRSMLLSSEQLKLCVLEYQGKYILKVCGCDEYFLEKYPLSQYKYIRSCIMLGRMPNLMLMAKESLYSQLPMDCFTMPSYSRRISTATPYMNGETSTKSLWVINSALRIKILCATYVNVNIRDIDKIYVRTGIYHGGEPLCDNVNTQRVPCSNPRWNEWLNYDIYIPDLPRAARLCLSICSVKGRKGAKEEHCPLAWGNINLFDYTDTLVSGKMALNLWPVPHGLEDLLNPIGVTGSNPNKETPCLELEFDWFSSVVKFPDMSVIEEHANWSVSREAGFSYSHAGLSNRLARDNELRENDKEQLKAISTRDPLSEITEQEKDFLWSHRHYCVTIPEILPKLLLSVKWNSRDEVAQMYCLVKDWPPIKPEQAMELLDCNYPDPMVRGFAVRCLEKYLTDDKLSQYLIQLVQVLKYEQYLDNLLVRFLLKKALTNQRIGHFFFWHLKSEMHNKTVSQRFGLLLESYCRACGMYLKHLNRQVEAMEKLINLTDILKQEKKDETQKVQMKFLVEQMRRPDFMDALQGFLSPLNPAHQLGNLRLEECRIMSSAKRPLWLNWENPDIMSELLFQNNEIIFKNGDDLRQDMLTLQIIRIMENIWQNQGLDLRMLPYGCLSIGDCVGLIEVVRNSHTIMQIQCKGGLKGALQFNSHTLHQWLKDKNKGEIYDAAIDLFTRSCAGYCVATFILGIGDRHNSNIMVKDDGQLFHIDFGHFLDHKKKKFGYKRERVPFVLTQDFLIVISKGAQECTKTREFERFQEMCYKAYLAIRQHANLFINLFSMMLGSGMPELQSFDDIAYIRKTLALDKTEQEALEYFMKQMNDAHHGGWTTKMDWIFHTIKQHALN

[11] = Volume of distribution at steady state in CD(Sprague-Dawley) rat at 0.3 mg/kg, iv administered as single dose measured up to 25 hrs; assay type: ADME, organism-based; conditions: in vivo, read-out: Vdss
[12] = AUC (0 to infinity) in CD(Sprague-Dawley) rat at 1 mg/kg, po administered as single dose measured up to 25 hrs; assay type: ADME, organism-based; parameters: dose 1 mg/kg, route oral, time infinity; conditions: in vivo
[13] = Metabolic stability in human liver microsomes assessed as compound remaining at 5 uM measured up to 60 mins; assay type: ADME; conditions: read-out: Stability
[14] = Terminal half life in CD(Sprague-Dawley) rat at 0.3 mg/kg, iv administered as single dose; assay type: ADME, organism-based; conditions: in vivo, read-out: beta t1/2 (converted)
[15] = Total clearance in CD(Sprague-Dawley) rat at 0.3 mg/kg, iv administered as single dose measured up to 25 hrs; assay type: ADME, organism-based; conditions: in vivo
Hepatitis C virus [16] = assay: Antiviral activity against HCV genotype […] Con1 infected in human Huh5-2 cells co-expressing subgenomic HCV replicon NS3 assessed as reduction in viral replication after 2 days by luciferase reporter gene assay; assay type: functional, cell-based, Hepacivirus hominis, genotype 1b Con1; conditions: Huh-5-2, 48 h

Structure (SMILES)	pEC50 (Hepatitis C virus [2])	Ratio IC50 (Homo sapiens)	pIC50 [4]	pIC50 [5]	further results
COCc1ncc(-c2c3ccc(-c4ccccc4)cc3nn2C)cc1NS(=O)(=O)c1ccc(F)cc1F	6.15	96	4.74	6.59	
COCc1ncc(-c2ccc3ncn(CCO)c(=O)c3c2)cc1NS(=O)(=O)c1ccc(F)cc1F	7.09	260	6.18	8.60	
COCc1ncc(-c2ccc3nnn(-c4ccccc4)c3c2)cc1NS(=O)(=O)c1ccc(F)cc1F	6.00	74	5.43	7.30	
COc1ncc(-c2ccc3ncn(-c4ccccc4)c(=O)c3c2)cc1NS(=O)(=O)c1ccc(F)cc1F		56			pIC50 [1]: 6.11; pIC50 [3]: 7.85
COCc1ncc(-c2ccc3ncc(=O)n(-c4ccccc4)c3c2)cc1NS(=O)(=O)c1ccc(F)cc1F	7.39	640	5.85	8.66	
COc1ncc(-c2ccc3ncn(-c4ccccc4)c(=O)c3c2)cc1S(=O)(=O)Nc1ccc(F)cc1F	7.00	> 160			pIC50 [1]: < 4.52; pIC50 [3]: 6.72
CCCn1cnc2ccc(-c3cnc(COC)c(NS(=O)(=O)c4ccc(F)cc4F)c3)cc2c1=O	8.00	120	6.64	8.72	
COCCn1cnc2ccc(-c3cnc(COC)c(NS(=O)(=O)c4ccc(F)cc4F)c3)cc2c1=O	7.89	130	6.89	9.00	
COCc1ncc(-c2ccc3ncc(-c4ccccc4)c(=O)n3c2)cc1NS(=O)(=O)c1ccc(F)cc1F	7.17	1030	5.09	8.10	
COCc1ncc(-c2ccc3nn(C)c(-c4ccccc4)c3c2)cc1NS(=O)(=O)c1ccc(F)cc1F	6.21	22	6.70	8.04	

Further lines, with some results ahead:

pEC50 (Hepatitis C virus [2])	Structure (SMILES)	Ratio IC50 (Homo sapiens)	pIC50 [4]	pIC50 [5]	further results
6.40	COC(C)c1ncc(-c2ccc3ncn(-c4ccccc4)c(=O)c3c2)cc1NS(=O)(=O)c1ccc(F)cc1F (racemic)	> 3000			pIC50 [1]: < 4.52; pIC50 [3]: 7.00
7.11	COCc1ncc(-c2c3ccc(C4=CCOCC4)cc3nn2C)cc1NS(=O)(=O)c1ccc(F)cc1F	58	6.04	7.80	
7.51	COCc1ncc(-c2c3ccc(C4CCOCC4)cc3nn2C)cc1NS(=O)(=O)c1ccc(F)cc1F	53	6.52	8.24	
6.11	COCc1ncc(-c2ccn3nnc(-c4ccccc4)c3c2)cc1NS(=O)(=O)c1ccc(F)cc1F	> 110	< 5.00	7.03	
< 4.52	COc1ncc(-c2ccc3ncn(-c4ccccc4)c(=O)c3c2)cc1CS(=O)(=O)c1ccc(F)cc1F	> 30			pIC50 [1]: < 4.52; pIC50 [3]: < 6.00
7.06	COCc1ncc(-c2ccc3ncn(CCS(C)(=O)=O)c(=O)c3c2)cc1NS(=O)(=O)c1ccc(F)cc1F	100	6.80	8.80	
7.54	COCc1ncc(-c2ccc3nn(C)c(C4CCOCC4)c3c2)cc1NS(=O)(=O)c1ccc(F)cc1F	20	7.41	8.70	
7.30	COCc1ncc(-c2ccc3nn(C)c(C4=CCOCC4)c3c2)cc1NS(=O)(=O)c1ccc(F)cc1F	32	7.01	8.51	
7.70	COCc1ncc(-c2ccc3ncn(-c4ccccc4)c(=O)c3c2)cc1NS(=O)(=O)c1ccc(F)cc1F	1200			pIC50 [1]: 5.31; pIC50 [3]: 8.39
8.17	COCCn1cnc2ccc(-c3cnc(COC4CC4)c(NS(=O)(=O)c4ccc(F)cc4F)c3)cc2c1=O	710	6.66	9.51	remaining at 1 h, 5 µM [6]: 91%; MRT [7]: 5.5 h; bioavailability [8]: 91%; pIC50 [9]: 5.85; pIC50 [10]: 6.62; Vd [11]: 0.2 L/kg; AUC(0-inf) [12]: 42 µM·h; remaining at 1 h, 5 µM [13]: 104%; half-life [14]: 3.3 h; clearance [15]: 0.667 mL/min/kg; pEC50 (Hepatitis C virus [16]): 8.00
6.06	COCc1ncc(-c2ccc3ncn(-c4ccccc4)c3c2)cc1NS(=O)(=O)c1ccc(F)cc1F	32	6.39	7.89	
